Assay results taken from EP0414569A2, “Three-liquid-phase epoxidation of perfluoroolefins” (E.I. DU PONT DE NEMOURS AND COMPANY, priority 1989, dated 1991).

Legend:
[1] = Determination of the HFP-HFPO partition coefficient (alpha) in an organic liquid: HFP/HFPO gas mixture passed through the liquid, dissolved gases measured by gas chromatography; type: physicochemical; settings: HFP-HFPO partition coefficient of the organic liquid, atmospheric pressure
Experimental: A simple method of determining this preference (using HFP over HFPO as an example of other olefins and their epoxides covered by this invention) is to determine the partition coefficient for the system HFPO-HFP-organic liquid. Determination of the partition coefficient (alpha) is carried out by passing a mixture of HFP and HFPO gas through the organic liquid at atmospheric pressure while agitating vigorously and maintaining a constant temperature. The gas is passed through the liquid long enough to ensure that the liquid is completely saturated with the gases and to let the gas phase composition equilibrate to the feed composition. The organic liquid phase is then sampled and gas chromatography is used to determine the amount of the gaseous components which had been dissolved in the liquid phase. The partition coefficient, alpha, is then calculated by the following equation: [formula]
Using this method, partition coefficients were determined for a number of organic liquids at -15°C and 0°C, with the results shown below: […]

[2] = Miscibility of toluene with HFP and HFPO; type: physicochemical; settings: in toluene; miscibility sharply affected by temperature
Excerpt: Certain organic liquids show more affinity for perfluoroolefins than for their epoxides and they are desired for use in this invention. […] With mixtures of HFP and HFPO as would exist in a continuous back-mixed reactor, immiscibility exists at higher temperatures. It is believed that organic liquids which are substantially halogenated will not form two phases with HFP or HFPO. […] Therefore, a hydrogen-containing organic liquid is used.

Compound	Alpha at 0°C [1]	Alpha at -15°C [1]	concentration at which toluene becomes immiscible [2]
FC(F)(F)C(F)(F)C(F)(F)C(F)(F)C1(F)OC(F)(F)C(F)(F)C1(F)F (centres unmarked) [FC-75, Perfluoro(butyl tetrahydrofurane)]	1.0	1.0	
FC(F)=C(F)C(F)(F)F [HFP, hexafluoropropylene]			20-40 wt %
FC(F)(F)C1(F)OC1(F)F (centres unmarked) [HFPO, hexafluoropropylene epoxide]			3-6 wt %
COc1ccccc1 [anisole]	2.5	2.4	
Clc1ccccc1 [chlorobenzene]	2.1	1.9	
Cc1cc(C)cc(C)c1 [mesitylene]	2.2	2.3	
CCCCCCCCCC [n-decane]	1.3	1.6	
dichlorobenzene	2.1	2.0	
